In paper PMC12983307 (Journal of the American Chemical Society, 2026):
Bridge positions count the residues as written; N and C are the ends. Peptide text beside a SMILES is read from it.

Target: AgrC (Staphylococcus aureus, UniProt O07911)
Test: fluorescence polarization displacement of TAMRA-AIP-III D4A from AgrC nanodiscs
Type: binding
Settings: read-out: % reduction in polarization at 10 μM

Sequence of AgrC (O07911 entry or part of it): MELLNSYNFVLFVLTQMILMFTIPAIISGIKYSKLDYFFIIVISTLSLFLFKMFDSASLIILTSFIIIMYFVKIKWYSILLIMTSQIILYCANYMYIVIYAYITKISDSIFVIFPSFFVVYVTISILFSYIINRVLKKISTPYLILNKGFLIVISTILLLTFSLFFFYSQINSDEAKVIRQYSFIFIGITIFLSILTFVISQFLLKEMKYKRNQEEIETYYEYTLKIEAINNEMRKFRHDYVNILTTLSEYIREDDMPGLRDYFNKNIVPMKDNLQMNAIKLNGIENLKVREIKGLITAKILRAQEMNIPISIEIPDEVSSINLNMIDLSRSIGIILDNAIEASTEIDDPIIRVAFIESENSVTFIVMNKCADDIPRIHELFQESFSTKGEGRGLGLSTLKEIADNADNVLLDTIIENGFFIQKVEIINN

With `CC[C@H](C)[C@@H]1NC(=O)[C@H](Cc2ccccc2)NC(=O)[C@H](CC(=O)O)NC(=O)[C@@H](NC(=O)[C@@H](NC(=O)[C@H](CO)NC(=O)[C@@H](N)Cc2ccc(O)cc2)[C@@H](C)O)CSC(=O)[C@H](CCSC)NC1=O` [AIP-I] (H-YSTCDFIM; thioester 4-C) the inhibition at 10 µM was 62%.
